Holding throughout (assay type): cell membranes, Membrane
The target in experiment [1] is Neuronal acetylcholine receptor subunit alpha-7 (Rattus norvegicus, UniProt Q05941).
Experiment [2] concerns the target Muscarinic acetylcholine receptor. Put plainly: Inhibition of [3H]N-methylscopolamine binding to muscarinic receptor of rat cortex membranes.
The target in experiment [3] is Neuronal acetylcholine receptor; alpha4/beta2 (Rattus norvegicus, UniProt P09483+P12390). Put plainly: Inhibition of [3H]epibatidine binding to alpha 4 beta 2 nicotinic acetylcholine receptor of rat cortex membranes.

By Ki is commonly meant the equilibrium dissociation constant of an inhibitor or competing ligand from its target. A higher Ki goes with lower affinity.

Chain of Neuronal acetylcholine receptor; alpha4/beta2 (P09483 whole entry): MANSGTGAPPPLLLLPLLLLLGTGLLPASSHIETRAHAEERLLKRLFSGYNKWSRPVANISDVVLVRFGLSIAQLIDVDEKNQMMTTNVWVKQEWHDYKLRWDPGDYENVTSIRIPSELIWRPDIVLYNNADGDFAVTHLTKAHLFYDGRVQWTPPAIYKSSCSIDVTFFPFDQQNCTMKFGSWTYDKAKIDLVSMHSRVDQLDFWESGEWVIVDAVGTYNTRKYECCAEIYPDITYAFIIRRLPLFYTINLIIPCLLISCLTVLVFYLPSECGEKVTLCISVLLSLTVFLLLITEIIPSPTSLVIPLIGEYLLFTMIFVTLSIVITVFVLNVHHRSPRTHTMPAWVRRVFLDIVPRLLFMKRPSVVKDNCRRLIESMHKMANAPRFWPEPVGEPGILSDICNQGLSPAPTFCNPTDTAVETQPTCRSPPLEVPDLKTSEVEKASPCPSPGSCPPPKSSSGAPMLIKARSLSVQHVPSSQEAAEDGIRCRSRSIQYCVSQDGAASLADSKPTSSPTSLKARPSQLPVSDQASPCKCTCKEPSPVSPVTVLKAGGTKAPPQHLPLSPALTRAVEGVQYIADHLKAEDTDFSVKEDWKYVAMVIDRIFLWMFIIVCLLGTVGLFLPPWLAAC
Chain of Neuronal acetylcholine receptor; alpha4/beta2 (P12390 whole entry): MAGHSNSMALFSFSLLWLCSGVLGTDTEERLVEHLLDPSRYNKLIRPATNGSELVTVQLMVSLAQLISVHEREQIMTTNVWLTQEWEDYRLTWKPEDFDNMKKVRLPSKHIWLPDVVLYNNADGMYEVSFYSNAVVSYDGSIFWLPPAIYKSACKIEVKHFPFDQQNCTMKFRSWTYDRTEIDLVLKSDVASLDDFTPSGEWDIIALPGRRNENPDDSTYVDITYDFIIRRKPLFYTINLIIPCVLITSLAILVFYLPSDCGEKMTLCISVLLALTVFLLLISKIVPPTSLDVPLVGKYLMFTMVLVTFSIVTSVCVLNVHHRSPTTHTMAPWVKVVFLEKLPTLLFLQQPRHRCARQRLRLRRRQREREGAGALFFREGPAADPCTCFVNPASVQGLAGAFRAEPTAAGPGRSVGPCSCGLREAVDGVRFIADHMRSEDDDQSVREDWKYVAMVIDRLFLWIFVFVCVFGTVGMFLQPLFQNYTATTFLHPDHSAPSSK
Chain of Neuronal acetylcholine receptor subunit alpha-7 (Q05941 whole entry): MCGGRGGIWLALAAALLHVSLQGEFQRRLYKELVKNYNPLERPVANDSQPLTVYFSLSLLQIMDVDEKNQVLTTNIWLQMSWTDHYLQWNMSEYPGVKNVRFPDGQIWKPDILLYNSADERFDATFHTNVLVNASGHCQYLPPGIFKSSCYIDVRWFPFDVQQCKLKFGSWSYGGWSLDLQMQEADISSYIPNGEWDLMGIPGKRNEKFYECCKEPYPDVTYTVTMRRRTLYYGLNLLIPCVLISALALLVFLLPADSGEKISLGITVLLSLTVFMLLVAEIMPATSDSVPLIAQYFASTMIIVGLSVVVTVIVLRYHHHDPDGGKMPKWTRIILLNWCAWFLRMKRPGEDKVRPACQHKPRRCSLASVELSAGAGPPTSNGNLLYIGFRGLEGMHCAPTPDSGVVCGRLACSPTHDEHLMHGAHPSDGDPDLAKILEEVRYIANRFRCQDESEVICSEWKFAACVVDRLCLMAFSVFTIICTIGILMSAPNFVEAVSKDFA

On to `C/C=N\OC[C@@H]1CCCN1C`, for which the Ki in experiment [1] and in experiment [2] was more than 50 µM throughout.

For the compound `CC=NOC[C@@H]1CCCN1C`, the figures for the Ki in experiment [1], in experiment [2] and in experiment [3] were more than 50 µM, more than 50 µM and 0.68 µM, respectively. As for `CC(C)O/N=C/[C@@H]1CCCN1C`, the Ki in experiment [1] is more than 50 µM; in experiment [2], 17 µM. On to `CC(C)=NOC[C@@H]1CCCN1C`, for which the values for the Ki in experiment [1], in experiment [2] and in experiment [3] were 49 µM, more than 50 µM and 0.52 µM, respectively. `Cc1cc([C@@H]2CCCN2C)on1` [ABT-418]: the results for the Ki in experiment [1] and in experiment [3] were 1.2 µM and 0.02 µM, respectively. The compound `CC(C)=NO[C@H]1CCCN(C)C1` had an inhibition constant (Ki) in experiment [3] of more than 50 µM.

Compound `CC(C)O/N=C\[C@@H]1CCCN1C` yielded a Ki in experiment [3] of 1.9 µM. The compound `C/C=N\OC[C@H]1CCCN1C` came in with an inhibition constant (Ki) in experiment [3] of 5.79 µM. Still for that read-out and setting: to `CC(C)=NO[C@@H]1CCCN(C)C1` belongs more than 50 µM. The same measure, in the same setting: to `CC(C)O/N=C\[C@H]1CCCN1C` belongs 14.5 µM. Regarding `CC(C)O/N=C/[C@H]1CCCN1C`, the Ki in experiment [1] stood at 47 µM; in experiment [3], 5.5 µM.

The values above are taken from ChEMBL document CHEMBL1137061 (Bioorg Med Chem Lett, 2004).
